Target: AKT (phospho-Ser^473-AKT) in BxPC-3 (Homo sapiens, UniProt P31749)
Experiment: Western blot phospho-Ser473-AKT in BxPC-3 cells
Settings: BXPC-3, read-out: % pAKT Inhibition At 10 μM

AKT (phospho-Ser^473-AKT) in BxPC-3, sequence (P31749 whole entry): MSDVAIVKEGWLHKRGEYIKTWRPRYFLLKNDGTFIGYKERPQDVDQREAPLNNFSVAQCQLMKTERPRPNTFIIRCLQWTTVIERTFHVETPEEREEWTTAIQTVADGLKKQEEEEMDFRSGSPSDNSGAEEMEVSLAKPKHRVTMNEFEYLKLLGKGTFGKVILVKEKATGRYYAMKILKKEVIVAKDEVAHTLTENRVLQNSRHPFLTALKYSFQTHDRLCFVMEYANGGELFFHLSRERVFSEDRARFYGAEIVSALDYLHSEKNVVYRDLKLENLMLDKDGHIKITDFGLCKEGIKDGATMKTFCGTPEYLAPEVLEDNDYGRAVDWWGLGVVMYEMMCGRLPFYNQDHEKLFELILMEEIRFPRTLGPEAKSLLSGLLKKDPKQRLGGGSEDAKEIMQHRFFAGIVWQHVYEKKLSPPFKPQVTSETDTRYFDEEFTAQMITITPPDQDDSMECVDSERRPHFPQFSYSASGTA

SMILES | inhibition at 10 µM [%]
Cc1nnc(NS(=O)(=O)c2ccc(N)cc2)s1 [Compound 105, 4-Amino-N-(5-methyl-1,3,4-thiadiazol-2-yl)benzenesulfonamide] | 11
CCc1nnc(NS(=O)(=O)c2ccc(N)cc2)s1 [Compound 109, 4-Amino-N-(5-ethyl-1,3,4-thiadiazol-2-yl)benzenesulfonamide] | 16
CCc1nnc(NS(=O)(=O)c2ccc(NC(C)=O)cc2)s1 [Compound 110, N-(4-(N-(5-Ethyl-1,3,4-thiadizol-2-yl)sulfamoyl)phenyl)acetamide] | 45
Nc1ccc(S(=O)(=O)Nc2nnc(CC(=O)O)s2)cc1 [Compound 117, 2-(5-(4-Aminophenylsulfonamido)-1,3,4-thiadiazol-2-yl)acetic Acid] | 23
CC(=O)Nc1ccc(S(=O)(=O)Nc2nnc(CC(=O)O)s2)cc1 [Compound 118, 2-(5-(4-Acetamidophenylsulfonamido)-1,3,4-thiadiazol-2-yl)acetic Acid] | 19
CCCCc1ccc(S(=O)(=O)Nc2nncs2)cc1 [Compound 155, 4-Butyl-N-(1,3,4-thiadiazol-2-yl)benzenesulfonamide] | < 10
CC(=O)Nc1ccc(S(=O)(=O)Nc2nnc(CO)s2)cc1 [Compound 126, N-(4-(N-(5-(hydroxymethyl)-1,3,4-thiadiazol-2-yl)sulfamoyl)phenyl)acetamide] | < 10
CC(=O)Nc1ccc(S(=O)(=O)Nc2nnc(C)s2)cc1 [Compound 106, N-(4-(N-(5-Methyl-1,3,4-thiadizol-2-yl)sulfamoyl)phenyl)acetamide] | < 10
CCOC(=O)c1nnc(NS(=O)(=O)c2ccc(NC(C)=O)cc2)s1 [Compound 122E, Ethyl 5-(4-Acetamidophenylsulfonamido)-1,3,4-thiadiazole-2-carboxylate] | < 10
CCOC(=O)Cc1nnc(NS(=O)(=O)c2ccc(NC(C)=O)cc2)s1 [Compound 118E, Ethyl 2-(5-(4-Acetamidophenylsulfonamido)-1,3,4-thiadiazol-2-yl)acetate] | 55
CC(=O)Nc1ccc(S(=O)(=O)Nc2nnc(S(N)(=O)=O)s2)cc1 [Compound 138, N-(4-(N-(5-Sulfamoyl-1,3,4-thiadiazol-2-yl)sulfamoyl)phenyl)acetamide] | < 10
CCCCCCCCc1ccc(S(=O)(=O)Nc2nncs2)cc1 [Compound 153, 4-Octyl-N-(1,3,4-thiadiazol-2-yl)benzenesulfonamide] | 10
Nc1ccc(S(=O)(=O)Nc2nnc(CO)s2)cc1 [Compound 125, 4-Amino-N-(5-(hydroxymethyl)-1,3,4-thiadiazol-2-yl)benzenesulfonamide] | 10
CC(=O)Nc1ccc(S(=O)(=O)Nc2nnc(C(C)(C)C)s2)cc1 [Compound 114, N-(4-(N-(5-tert-Butyl-1,3,4-thiadiazol-2-yl)sulfamoyl)phenyl)acetamide] | 20
Nc1ccc(S(=O)(=O)Nc2nnc(S(N)(=O)=O)s2)cc1 [Compound 131, 5-(4-Aminophenylsulfonamido)-1,3,4-thiadiazole-2-sulfonamide] | 18
CC(C)(C)c1nnc(NS(=O)(=O)c2ccc(N)cc2)s1 [Compound 113, 4-Amino-N-(5-tert-butyl-1,3,4-thiadiazol-2-yl)benzenesulfonamide] | 13
CCCCCCc1ccc(S(=O)(=O)Nc2nncs2)cc1 [Compound 154, 4-Hexyl-N-(1,3,4-thiadiazol-2-yl)benzenesulfonamide] | < 10

Same assay, conditions: BxPC-3 cells

SMILES | AKT phosphorylation inhibition (qualitative)
CCCCCCCCCCCCc1ccc(S(=O)(=O)Nc2nnc(CCCCCN(C)c3ccc([N+](=O)[O-])c4nonc34)s2)cc1 [Compound 137, 4-Dodecyl-N-(5-(5-(methyl(7-nitrobenzo[c][1,2,5]oxadiazol-4-yl)amino)pentyl)-1,3,4-thiadiazol-2-yl)benzenesulfonamide] | inhibited AKT phosphorylation in a fashion similar to 104

Reference: patent US20120189670A1, “PHARMACEUTICAL COMPOSITIONS AND FORMULATIONS INCLUDING INHIBITORS OF THE PLECKSTRIN HOMOLOGY DOMAIN AND METHODS FOR USING SAME” (priority 2009, published 2012)
